Patent US12435087B2, “Modulators of DCN-1 and methods of use thereof” (Cellarity, Inc., priority 2023, dated 2025)
pIC50: −log10 of the molar value. Like-named read-outs stand apart in the source and are kept apart here.

Molecular target: DCN1 (DCUND1) protein PONY domain (Homo sapiens (Human), UniProt Q96GG9)
Assay: TR-FRET assay (binding to DCN-1, displacement of FAM-labeled probe)
Details: for IC50: TR FRET IC50 1 hr (nM)
Procedure, shortened: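 Compounds read at 1, 5 and 24 h, 0.1% final DMSO, by TR-FRET between terbium-streptavidin on biotinylated DCN1 PONY domain (E. coli) and a FAM-tagged non-covalent inhibitor probe. Two setups used, 5 nM protein with 20 nM labelled probe, or 0.31 nM protein with 100 nM labelled plus 800 nM unlabelled probe; buffer had TritonX and 200 mM NaCl. % activity relative to high (with probe) and low (without probe) controls.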

[1] = 24 hr after treatment with compound, read-out: TR FRET IC50 24 hr
[2] = 1 hr after treatment with compound
[3] = read-out: TR FRET IC50 1 hr, 1 hr after treatment with compound

DCN1 (DCUND1) protein PONY domain, sequence (Q96GG9 60-248): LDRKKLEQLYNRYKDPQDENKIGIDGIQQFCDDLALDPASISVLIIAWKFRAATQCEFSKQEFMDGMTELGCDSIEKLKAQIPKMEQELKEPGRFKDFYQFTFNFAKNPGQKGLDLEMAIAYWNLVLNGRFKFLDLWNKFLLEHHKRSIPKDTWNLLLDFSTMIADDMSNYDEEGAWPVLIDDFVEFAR

Structure (SMILES): C/C=C(\CN1CCC1)C(=O)NCc1cccc([C@@H]2c3cnn(-c4ccccc4)c3N(CC)C(=O)[C@H]2NC(=O)c2ccn(C3CC3)n2)c1 [Compound I-309]
- pIC50 [1]: ≥ 6.70
- IC50 [2]: ≤ 200 nM

Structure (SMILES): C=C(CN(C)C1COC1)C(=O)N(C)Cc1cccc([C@@H]2c3cnn(-c4ccccc4)c3N(CC)C(=O)[C@H]2NC(=O)c2ccn(C3CC3)n2)c1 [Compound I-239]
- IC50 [2]: 1000 to 3000 nM

Structure (SMILES): CCN1C(=O)[C@@H](NC(=O)c2nccc(C(F)(F)F)n2)[C@H](c2cccc(NC(=O)C3=CCC3)n2)c2cnn(-c3ccccc3)c21 (racemic) [Compound I-279]
- pIC50 [1]: 5.52 to 6.00
- IC50 [2]: 1000 to 3000 nM

Structure (SMILES): C=C(CN(C)C1COC1)C(=O)N(C)Cc1cccc([C@@H]2c3cnn(-c4ccccc4)c3N(CC)C(=O)[C@H]2NC(=O)c2csc(C(F)(F)F)n2)c1 [Compound I-318]
- pIC50 [1]: ≥ 6.70
- IC50 [2]: 200 to 1000 nM

Structure (SMILES): C=C(CN1CC2(COC2)C1)C(=O)NCc1cccc([C@@H]2c3cnn(-c4ccccc4)c3N(CC)C(=O)[C@H]2NC(=O)c2nccc(C(F)(F)F)n2)c1 [Compound I-161]
- pIC50 [1]: ≥ 6.70
- pIC50 [3]: ≥ 6.70

Structure (SMILES): C=C(CN1CCC1)C(=O)NCc1cccc([C@@H]2c3c(C)nn(-c4ccccc4)c3N(CC)C(=O)[C@H]2NC(=O)c2cccc(C(F)(F)F)c2)c1 [Compound I-303]
- pIC50 [1]: ≥ 6.70
- pIC50 [3]: ≥ 6.70

Structure (SMILES): C=C(CN1CCC1)C(=O)NCc1cccc([C@H]2c3cnn(-c4ccccc4)c3N(CC)C(=O)[C@@H]2NC(=O)c2cccc(C(F)(F)F)c2)c1 [Compound I-59]
- pIC50 [1]: ≥ 6.70
- IC50 [2]: 1000 to 3000 nM

Structure (SMILES): CCN1C(=O)[C@@H](NC(=O)c2nccc(C(F)(F)F)n2)[C@H](c2cccc(C(=O)N(C)CC#N)c2)c2cnn(-c3ccccc3)c21 (racemic) [Compound I-370]
- pIC50 [1]: 5.52 to 6.00
- IC50 [2]: 1000 to 3000 nM

Structure (SMILES): C/C=C(\CN1CCOCC1)C(=O)NCc1cccc([C@H]2c3cnn(-c4ccccc4)c3N(CC)C(=O)[C@@H]2NC(=O)c2cccc(C(F)(F)F)c2)c1 [Compound I-115]
- pIC50 [1]: 5.52 to 6.00
- IC50 [2]: 1000 to 3000 nM

Structure (SMILES): C=C(CN1CC2(CCOC2)C1)C(=O)NCc1cccc([C@@H]2c3cnn(-c4ccccc4)c3N(CC)C(=O)[C@H]2NC(=O)c2cccc(C(F)(F)F)c2)c1 [Compound I-12]
- pIC50 [1]: ≥ 6.70
- pIC50 [3]: ≥ 6.70

Structure (SMILES): C/C=C(\CN1CC2(COC2)C1)C(=O)NCc1cccc([C@@H]2c3cnn(-c4ccccc4)c3N(CC)C(=O)[C@H]2NC(=O)c2ccn(C(F)(F)F)n2)c1 [Compound I-302]
- pIC50 [1]: ≥ 6.70
- IC50 [2]: 200 to 1000 nM

Structure (SMILES): C=C(CN1CCOCC1)C(=O)NCc1cccc([C@@H]2c3cnn(-c4ccccc4)c3N(CC)C(=O)[C@H]2NC(=O)c2ccnn2C)c1 [Compound I-266]
- pIC50 [1]: 5.52 to 6.00
- IC50 [2]: 1000 to 3000 nM

Structure (SMILES): C=C(C(=O)NCc1cccc([C@@H]2c3cnn(-c4ccccc4)c3N(CC)C(=O)[C@H]2NC(=O)c2cccc(C(F)F)c2)c1)C(C)N(C)C1COC1 (stereo partly drawn) [Compound I-277]
- pIC50 [1]: ≥ 6.70
- pIC50 [3]: ≥ 6.70

Structure (SMILES): C=C(CN1CC2CC1CO2)C(=O)NCc1cccc([C@H]2c3c(C)nn(-c4ccccc4)c3N(CC)C(=O)[C@@H]2NC(=O)c2cccc(C(F)(F)F)c2)c1 (stereo partly drawn) [Compound I-294]
- pIC50 [1]: ≥ 6.70
- IC50 [2]: 200 to 1000 nM

Structure (SMILES): C=C(CC(=O)OC)C(=O)NCc1cccc([C@H]2c3cnn(-c4ccccc4)c3N(CC)C(=O)[C@@H]2NC(=O)c2cccc(C(F)(F)F)c2)c1 [Compound I-121]
- pIC50 [1]: 5.52 to 6.00
- IC50 [2]: 1000 to 3000 nM

Structure (SMILES): C=C(CN1CC(O)C1)C(=O)NCc1cccc([C@@H]2c3cnn(-c4ccccc4)c3N(CC)C(=O)[C@H]2NC(=O)c2cccc(C(F)(F)F)c2)c1 [Compound I-291]
- pIC50 [1]: ≥ 6.70
- pIC50 [3]: ≥ 6.70

Structure (SMILES): C/C=C(\CN1CCC(F)(F)C1)C(=O)Nc1cccc([C@@H]2c3cnn(-c4ccccc4)c3N(CC)C(=O)[C@H]2NC(=O)c2nccc(C(F)(F)F)n2)c1 [Compound I-368]
- pIC50 [1]: ≥ 6.70
- IC50 [2]: 1000 to 3000 nM

Structure (SMILES): CCN1C(=O)[C@@H](NC(=O)c2cccc(C(F)(F)F)c2)[C@H](c2cncc(NC(=O)C3=CCC3)c2)c2cnn(-c3ccccc3)c21 (racemic) [Compound I-36]
- pIC50 [1]: 5.52 to 6.00
- pIC50 [3]: 5.52 to 6.00

Structure (SMILES): C/C=C/S(=O)(=O)Nc1cccc([C@H]2c3c(C)nn(-c4ccccc4)c3N(CC)C(=O)[C@@H]2NC(=O)c2cccc(C(F)(F)F)c2)c1 (racemic) [Compound I-131]
- pIC50 [1]: ≥ 6.70
- IC50 [2]: 200 to 1000 nM

Structure (SMILES): CCN1C(=O)[C@@H](NC(=O)c2nccc(C(F)(F)F)n2)[C@H](c2cccc(C(=O)N3C[C@@H](F)C[C@H]3C#N)c2)c2cnn(-c3ccccc3)c21 [Compound I-330]
- pIC50 [1]: 5.52 to 6.00
- IC50 [2]: 1000 to 3000 nM

Structure (SMILES): CCN1C(=O)[C@@H](NC(=O)c2nccc(C(F)(F)F)n2)[C@H](c2cccc(NC(=O)/C=C/C(=O)N(C)C)c2)c2c(C)nn(-c3ccccc3)c21 [Compound I-245]
- pIC50 [1]: 5.52 to 6.00
- IC50 [2]: 1000 to 3000 nM

Structure (SMILES): C=C(CN1CC2CC(C1)O2)C(=O)NCc1cccc([C@@H]2c3cnn(-c4ccccc4)c3N(CC)C(=O)[C@H]2NC(=O)c2cccc(C(F)(F)F)c2)c1 [Compound I-290]
- pIC50 [1]: ≥ 6.70
- pIC50 [3]: ≥ 6.70

Structure (SMILES): C/C=C(\CN1CCOCC1)C(=O)NCc1cccc([C@@H]2c3cnn(-c4ccccc4)c3N(CC)C(=O)[C@H]2NC(=O)c2ccn(C(F)(F)F)n2)c1 [Compound I-284]
- pIC50 [1]: ≥ 6.70
- IC50 [2]: 1000 to 3000 nM

Structure (SMILES): C=C(CN1CCC(F)(F)C1)C(=O)NCc1cccc([C@H]2c3cnn(-c4ccccc4)c3N(CC)C(=O)[C@@H]2NC(=O)c2cccc(C(F)(F)F)c2)c1 [Compound I-102]
- pIC50 [1]: 5.52 to 6.00
- IC50 [2]: 1000 to 3000 nM

Structure (SMILES): C=C(CN1CC2(CCC2O)C1)C(=O)NCc1cccc([C@@H]2c3cnn(-c4ccccc4)c3N(CC)C(=O)[C@H]2NC(=O)c2cccc(C(F)(F)F)c2)c1 (stereo partly drawn) [Compound I-375]
- pIC50 [1]: ≥ 6.70
- pIC50 [3]: ≥ 6.70

Structure (SMILES): C=C(CN1CCOCC1)C(=O)NCc1ccccc1[C@@H]1c2cnn(-c3ccccc3)c2N(CC)C(=O)[C@H]1NC(=O)c1cccc(C(F)(F)F)c1 (racemic) [Compound I-153]
- pIC50 [1]: ≥ 6.70
- pIC50 [3]: ≥ 6.70

Structure (SMILES): C/C=C(\CN1CCOCC1)C(=O)NCc1cccc([C@@H]2c3cnn(-c4ccccc4)c3N(CC)C(=O)[C@H]2NC(=O)c2cccc(C(F)(F)F)c2)c1 [Compound I-152]
- pIC50 [1]: ≥ 6.70
- IC50 [2]: 1000 to 3000 nM

Structure (SMILES): CCN1C(=O)[C@@H](NC(=O)c2cccc(C(F)(F)F)c2)[C@H](c2cccc3c2CN(C#N)C3)c2cnn(-c3ccccc3)c21 (racemic) [Compound I-282, rac-N-((4R,5S)-4-(2-cyanoisoindolin-4-yl)-7-ethyl-6-oxo-1-phenyl-4,5,6,7-tetrahydro-1H-pyrazolo[3,4-b]pyridin-5-yl)-3-(trifluoromethyl)benzamide]
- pIC50 [1]: 5.52 to 6.00
- IC50 [2]: 1000 to 3000 nM

Structure (SMILES): C=C(CN1CCOCC1)C(=O)NCc1cccc([C@H]2c3cnn(-c4ccccc4)c3N(CC)C(=O)[C@@H]2NC(=O)c2cccc(C(F)(F)F)c2)c1 [Compound I-93]
- pIC50 [1]: 5.52 to 6.00
- IC50 [2]: 1000 to 3000 nM

Structure (SMILES): C=C(CN1CCOCC1)C(=O)NCc1cccc([C@@H]2c3cnn(-c4ccccc4)c3N(CC)C(=O)[C@H]2NC(=O)c2ccn(CC(F)F)n2)c1 [Compound I-364]
- pIC50 [1]: ≥ 6.70
- IC50 [2]: 200 to 1000 nM

Structure (SMILES): C=C(CN1CC2CC(C1)O2)C(=O)NCc1cccc([C@@H]2c3cnn(-c4ccccc4)c3N(CC)C(=O)[C@H]2NC(=O)c2ccn(C(F)(F)F)n2)c1 [Compound I-315]
- pIC50 [1]: ≥ 6.70
- pIC50 [3]: ≥ 6.70

Structure (SMILES): CCN1C(=O)[C@@H](NC(=O)c2cccc(C(F)(F)F)c2)[C@H](c2ccc(F)c(NC(=O)/C=C/CN(C)C)c2)c2cnn(-c3ccccc3)c21 [Compound I-32]
- pIC50 [1]: ≥ 6.70
- IC50 [2]: 1000 to 3000 nM
